From US20170216315A1 (priority 2016, published 2017) come the findings set out here.

Assay [1] concerns PPAR-α, RXR-α, CPT1, UCP2. In words: Expressions of fatty acid β-oxidation-promoting genes in liver (real-time PCR). Format: in vivo, mice. The conditions noted are these: EK100 1, 5, 10 mg/kg/day vs EtOH group, p<0.05, FIG. 5.
Method: (§1) C-4 was put into a 0.8 ml RNAlater containing an RNA stabilizer (Qiagen company, United States), and then the commercial kit (E.Z.N.A™ Tissue RNA kit, purchased from Omega Bio-Tek company, United States) was used to extract the mRNA therein. After that, the mRNA sample obtained therefrom was reverse transcribed to provide cDNA, and then specific primers (as shown in Table 2) were used to conduct real-time polymerase chain reaction (real-time PCR) of the cDNA to observe the expression of each gene in the mouse liver, wherein the operation steps of the real-time polymerase chain reaction were as follows: (i) 2 μl of cDNA (50 ng/μl), 5 μl of SYBR Green (Molecular Probes company, United States, Applied Biosystems/Fast SYBR® Green Master Mix), 2 μl of RNase-free water, 1 μl of forward primer, and 1 μl of reverse primer were well mixed and then centrifuged; (ii) the above sample was put into a real-time polymerase chain reaction system (Applied Biosystems/StepOne Real time PCR system) to detect the expression of each gene, wherein the expression of GAPDH was used as the positive control.
Therefore, the expressions of the above genes in the mouse liver of each group were compared by the analysis method of [Preparation Examples]
The subject of assay [2] is male C57BL/6 mice. In words: Appearance and H&E staining of mouse liver. Format: in vivo. The note with it: EK100 1, 5, 10 mg/kg/day vs EtOH group. How it is done: C-4. After “C-3” was completed, the mice were sacrificed. The weights of the mice hearts, livers, kidneys, spleens, and abdominal and epididymal fat pads were measured and recorded; the mice livers were washed with sterilized saline, and then the liver appearances were recorded by a camera. The collected organs and feces were stored at −80° C. for the following analysis (recording, sample collection and storage were conducted for all of the 8 mice from each group).
The photographs of the mouse liver appearance of each group recorded in [Preparation Examples]
Additionally, the photographs of stained mouse liver of each group recorded in [Preparation Examples]

The test system of another assay is catalase (CAT). In words: Activity of CAT in mouse liver. Format: in vivo, mice. The note with it: for Activity of CAT: liver homogenate, alcoholic liquid diet, 4 weeks.
Assay [3] deals with glutathione peroxidase (GPx). In words: Activity of GPx in mouse liver. Format: in vivo, mice. The note with it: for Activity of GPx: liver homogenate, alcoholic liquid diet, 4 weeks.
Assay [4] has as its system TLR4, MyD88, NF-κB, iNOS, COX-2, α-SMA. Put plainly: Expressions of pro-inflammatory genes in liver (real-time PCR). Format: in vivo, mice. The conditions noted are these: EK100 1, 5, 10 mg/kg/day vs EtOH group, p<0.05, FIG. 10. Background: Quantitative PCR measures a nucleic acid by following its amplification.
Method: as §1
Another assay relates to ADH, ALDH, CYP2E1, CAT. In words: Gene expressions of alcohol metabolism-related enzymes in liver (real-time PCR). Format: in vivo, mice. The conditions noted are these: EK100 1, 5, 10 mg/kg/day vs EtOH group; p<0.05; FIG. 12.
A further assay concerns CYP2E1. In words: Protein expression of CYP2E1 in liver (western blot). The conditions noted are these: EK100 1, 5, 10 mg/kg/day vs EtOH group, p<0.05, FIGS. 13A, 13B. Format: in vivo, mice. On the technique in general: In western blotting, separated proteins are transferred to a membrane and probed.
For assay [5], the system named is alcohol dehydrogenase (ADH). Put plainly: Activity of ADH in liver homogenate. The conditions noted are these: EK100 1, 5, 10 mg/kg/day vs control or EtOH group; p<0.05; FIG. 14A. Format: in vivo, mice. How it is done:
D-3 were analyzed. The operation steps were as follows: (i) 50 μl of liver homogenate, 50 μl of phosphate-buffered saline (PBS), and 1 ml of 0.1 M glycine-NaOH buffer (pH 10.8, 10 mM NAD^+) were well mixed; the mixture was left standing in the dark at room temperature for 4 minutes; and then the absorbance (A) of the mixture was measured at 340 nm wavelength; (ii) 50 μl of liver homogenate, 50 μl of phosphate-buffered saline (PBS), and 1 ml of 0.1 M glycine-NaOH buffer (pH 10.8, 10 mM NAD^+, 0.016 M ethanol) were well mixed; the mixture was left standing in the dark at room temperature for 4 minutes; and then the absorbance (B) of the mixture was measured at 340 nm wavelength; (iii) absorbance (A) and absorbance (B) were substituted into formula 2 below to calculate the activity of ADH (μmole/min/mg protein).

A short description of assay [6]: Alcohol concentration in mouse serum. Format: in vivo, mice. The conditions noted are these: EK100 1, 5, 10 mg/kg/day vs EtOH group; p<0.05; FIG. 15. How it is done: C-3. At the end of week 4, the mice were fasted for 8 hours. Then, mice blood was collected by orbital sinus blood collection with capillary blood collection needles (for all of the 8 mice from each group). The mice blood was left standing for 1 hour and then centrifuged by a refrigerated microcentrifuge (Kubota corporation, model number: 3700) to separate the supernatant serum. The supernatant serum was stored at −80° C. for the following analysis.
Mouse serum samples of each group provided in [Preparation Examples] C-2 were well mixed with ADH and NAD^+ reagents in a commercial kit (Dade-Berhring company, England, Emit® II Plus Ethyl alcohol assay), and then the alcohol concentrations in the above serum samples were measured by an automatic biochemistry analyzer (Olympus company, Japan, AU2700) at 340 nm wavelength.

Assay [7] has as its system male C57BL/6 mice. In words: TEAC value of liver homogenate. The note with it: for TEAC value: liver homogenate, alcoholic liquid diet, 4 weeks.
[8] abbreviates: EK100 1, 5, 10 mg/kg/day vs EtOH group, p<0.05.

Molecules are shown by their SMILES. Marks after values point to notes of the source that are not given here.

Method for ADH, ALDH, CYP2E1, CAT: as §1
The expressions of alcohol metabolism-related enzymes (i.e., ADH, ALDH, CYP2E1, and CAT) in mouse liver of each group were compared by the analysis method of [Preparation Examples]

Take `CC(C)[C@@H](C)/C=C/[C@@H](C)[C@H]1CC[C@H]2C3=CCC4C[C@@H](O)CC[C@]4(C)C3=CC[C@]12C` (some centres unmarked) [EK100]: the “Expressions of fatty acid β-oxidation-promoting genes in liver compared to EtOH” value in [1] was “significantly increased”. Moreover, the “Number of fat vacuoles in liver tissue compared to EtOH” value with male C57BL/6 mice [2] (H&E staining, FIGS. 7A-7E) was “markedly decreased”. In addition, the “Whitening phenomenon of liver compared to EtOH” value with male C57BL/6 mice [2] (liver appearance, FIGS. 6A-6E) is given as “decreased”. Also, the “Activity of CAT in liver compared to EtOH” value in the assay on catalase (CAT) (setting [8]) is “significantly increased”. The “Activity of CAT” value was 175.80 ± 6.89^a unit/mg protein with catalase (CAT) (EK100_1X: 1 mg/kg/day gavage), 145.43 ± 5.77^b unit/mg protein in the assay on catalase (CAT) (EK100_5X: 5 mg/kg/day gavage) and 137.16 ± 6.79^bc unit/mg protein in the assay with catalase (CAT) (EK100_10X: 10 mg/kg/day gavage). Moreover, in assay [3] (EK100 10 mg/kg/day (EK100_10X) vs EtOH group, p<0.05), the “Activity of GPx in liver compared to EtOH” value is on record as “significantly increased”. Further, the figures for the “Activity of GPx” value in assay [3] (EK100_1X: 1 mg/kg/day gavage), in assay [3] (EK100_5X: 5 mg/kg/day gavage) and in assay [3] (EK100_10X: 10 mg/kg/day gavage) were 114.16 ± 2.40^b unit/mg protein, 110.74 ± 3.52^b unit/mg protein and 131.89 ± 6.83^a unit/mg protein, respectively. In addition, the “Expressions of pro-inflammatory genes in liver compared to EtOH” value in assay [4] is on record as “significantly decreased”. In the assay on ADH, ALDH, CYP2E1, CAT, the “Gene expression of ADH in liver compared to EtOH” value is given as “significantly increased”. Besides, the “Gene expression of ALDH in liver compared to EtOH” value in the assay on ADH, ALDH, CYP2E1, CAT was “significantly increased”. In addition, in the assay with ADH, ALDH, CYP2E1, CAT, the “Gene expression of CAT in liver compared to EtOH” value was “significantly increased”. Further, the “Gene expression of CYP2E1 in liver compared to EtOH” value with ADH, ALDH, CYP2E1, CAT was “significantly decreased”. Further, the “Protein expression of CYP2E1 in liver compared to EtOH” value with CYP2E1 is “significantly decreased”. In addition, the “Activity of ADH in liver compared to control or EtOH” value in assay [5] is “significantly increased”. Besides, the “Alcohol concentration in serum compared to EtOH” value in [6] is “significantly decreased”. Moreover, the “TEAC value of liver compared to EtOH” value with male C57BL/6 mice [7] (setting [8]) was “significantly increased”. Moreover, the TEAC value is listed as 69.18 ± 2.77^a nmol/mg protein in the assay with male C57BL/6 mice [7] (EK100_1X: 1 mg/kg/day gavage), 75.23 ± 2.61^a nmol/mg protein in the assay on male C57BL/6 mice [7] (EK100_5X: 5 mg/kg/day gavage) and 70.50 ± 2.25^a nmol/mg protein in the assay on male C57BL/6 mice [7] (EK100_10X: 10 mg/kg/day gavage).
